Source: ChEMBL document CHEMBL1201862, “PubChem BioAssay data set” (2004)
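Following 48 hours of exposure in 96-well plates, responses at five concentrations were used to interpolate endpoints linearly. GI50: concentration for 50% inhibition of growth.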 The source made the active and inactive calls. Rule as the data show it: active = GI50 up to about 1.1 µM and inactive = higher.

How the values were obtained:
Test in all cases: inhibition of tumour cell growth, NCI panel, 48 h
HOP-62 = test system: HOP-62
SN12C = test system: SN12C
HCT-116 = test system: HCT-116
OVCAR-4 = test system: OVCAR-4
SF-268 = test system: SF-268
HT-29 = test system: HT-29
SK-MEL-5 = test system: SK-MEL-5
ACHN = test system: ACHN
UACC-62 = test system: UACC-62
RPMI-8226 = test system: RPMI-8226
TK-10 = test system: TK-10
NCI-H460 = test system: NCI-H460
EKVX = test system: EKVX
NCI-H226 = test system: NCI-H226
Malme-3M = test system: Malme-3M
HCT-15 = test system: HCT-15
SNB-75 = test system: SNB-75
IGROV-1 = test system: IGROV-1
Hs-578T = test system: Hs-578T
MDA-MB-435 = test system: MDA-MB-435

| SMILES | GI50 (HOP-62) | GI50 (SN12C) | GI50 (HCT-116) | GI50 (OVCAR-4) | GI50 (SF-268) | GI50 (HT-29) | GI50 (SK-MEL-5) | GI50 (ACHN) | GI50 (UACC-62) | GI50 (RPMI-8226) | GI50 (TK-10) | GI50 (NCI-H460) | GI50 (EKVX) | GI50 (NCI-H226) | GI50 (Malme-3M) | GI50 (HCT-15) [µM] | GI50 (SNB-75) | GI50 (IGROV-1) | GI50 (Hs-578T) | GI50 (MDA-MB-435) |
| --- | --- | --- | --- | --- | --- | --- | --- | --- | --- | --- | --- | --- | --- | --- | --- | --- | --- | --- | --- | --- |
| O=C1OC(c2ccccc2)=N/C1=C/NC(CS)C(=O)O (stereo not drawn) | > 100 µM (inactive) | > 100 µM (inactive) | > 100 µM (inactive) | > 100 µM (inactive) | > 100 µM (inactive) | > 100 µM (inactive) | > 100 µM (inactive) | > 100 µM (inactive) | > 100 µM (inactive) | > 100 µM (inactive) | > 100 µM (inactive) | > 100 µM (inactive) | > 100 µM (inactive) | > 100 µM (inactive) | > 100 µM (inactive) | > 100 | 64.3 µM (inactive) | > 100 µM (inactive) | – | – |
| N#Cc1c(N2CCCC2)nsc1Nc1ccccc1 | – | > 100 µM (inactive) | > 100 µM (inactive) | > 100 µM (inactive) | > 100 µM (inactive) | > 100 µM (inactive) | > 100 µM (inactive) | > 100 µM (inactive) | – | > 100 µM (inactive) | > 100 µM (inactive) | > 100 µM (inactive) | > 100 µM (inactive) | > 100 µM (inactive) | > 100 µM (inactive) | > 100 | > 100 µM (inactive) | > 100 µM (inactive) | > 100 µM (inactive) | – |
| C/C(=N\NC(N)=S)c1cc(C)c(C)cc1C | > 100 µM (inactive) | > 100 µM (inactive) | > 100 µM (inactive) | 30.9 µM (inactive) | 62.4 µM (inactive) | 20.2 µM (inactive) | 57 µM (inactive) | > 100 µM (inactive) | 30.9 µM (inactive) | 31.3 µM (inactive) | 89.5 µM (inactive) | 43.9 µM (inactive) | 8.69 µM (inactive) | > 100 µM (inactive) | 32.6 µM (inactive) | 83.8 | 30.6 µM (inactive) | 31 µM (inactive) | – | – |
| O=C(NC1C(=O)NNC1c1ccccc1Cl)c1ccccc1 (stereo not drawn) | > 100 µM (inactive) | > 100 µM (inactive) | > 100 µM (inactive) | > 100 µM (inactive) | > 100 µM (inactive) | > 100 µM (inactive) | > 100 µM (inactive) | > 100 µM (inactive) | > 100 µM (inactive) | 82.2 µM (inactive) | > 100 µM (inactive) | > 100 µM (inactive) | > 100 µM (inactive) | 83 µM (inactive) | > 100 µM (inactive) | > 100 | > 100 µM (inactive) | > 100 µM (inactive) | – | – |
| OC(CC1SCCCS1)c1ccccc1 (stereo not drawn) | > 100 µM (inactive) | > 100 µM (inactive) | > 100 µM (inactive) | > 100 µM (inactive) | > 100 µM (inactive) | > 100 µM (inactive) | > 100 µM (inactive) | > 100 µM (inactive) | > 100 µM (inactive) | > 100 µM (inactive) | > 100 µM (inactive) | > 100 µM (inactive) | > 100 µM (inactive) | > 100 µM (inactive) | > 100 µM (inactive) | > 100 | > 100 µM (inactive) | > 100 µM (inactive) | – | – |
| Cc1ccccc1NC(=O)c1ccc([N+](=O)[O-])cc1 | > 100 µM (inactive) | > 100 µM (inactive) | > 100 µM (inactive) | > 100 µM (inactive) | > 100 µM (inactive) | 51.1 µM (inactive) | 84.9 µM (inactive) | > 100 µM (inactive) | > 100 µM (inactive) | > 100 µM (inactive) | 97.3 µM (inactive) | > 100 µM (inactive) | > 100 µM (inactive) | > 100 µM (inactive) | > 100 µM (inactive) | 66.2 | > 100 µM (inactive) | > 100 µM (inactive) | – | – |
| O=C1C(c2ccccc2)=C(O)c2cccc3cccc1c23 | – | > 100 µM (inactive) | > 100 µM (inactive) | > 100 µM (inactive) | > 100 µM (inactive) | > 100 µM (inactive) | > 100 µM (inactive) | > 100 µM (inactive) | > 100 µM (inactive) | > 100 µM (inactive) | > 100 µM (inactive) | > 100 µM (inactive) | > 100 µM (inactive) | 88.9 µM (inactive) | > 100 µM (inactive) | > 100 | 40.3 µM (inactive) | > 100 µM (inactive) | – | – |
| CCOC(=O)C1C(=O)CC(O)(OCC)C(C(=O)OCC)C1c1ccc(OC)cc1 (stereo not drawn) | > 100 µM (inactive) | > 100 µM (inactive) | > 100 µM (inactive) | > 100 µM (inactive) | > 100 µM (inactive) | > 100 µM (inactive) | > 100 µM (inactive) | > 100 µM (inactive) | > 100 µM (inactive) | – | > 100 µM (inactive) | > 100 µM (inactive) | > 100 µM (inactive) | > 100 µM (inactive) | > 100 µM (inactive) | > 100 | > 100 µM (inactive) | > 100 µM (inactive) | – | > 100 µM (inactive) |
| COC1CC(C)C(OC)c2cc(O)cc(c2O)NC(=O)/C(C)=C/C=C\C(C)C(OC(N)=O)/C(C)=C\C(C)C1OC (stereo not drawn) | 0.579 µM (active) | 0.36 µM (active) | 0.297 µM (active) | 3.2 µM (inactive) | 2.19 µM (inactive) | 0.139 µM (active) | 0.268 µM (active) | 4.98 µM (inactive) | 0.274 µM (active) | 0.152 µM (active) | 6.97 µM (inactive) | 0.203 µM (active) | 10.5 µM (inactive) | 7.35 µM (inactive) | 0.225 µM (active) | 5.6 | 0.776 µM (active) | 0.221 µM (active) | – | 0.0998 µM (active) |
| O=[N+]([O-])c1ccc(O)c(/C=N/CC2CCCN3CCCCC23)c1 (stereo not drawn) | 83.4 µM (inactive) | – | 44.2 µM (inactive) | – | 21.3 µM (inactive) | 35.6 µM (inactive) | 19.3 µM (inactive) | 26.9 µM (inactive) | 27.9 µM (inactive) | – | > 100 µM (inactive) | 45.8 µM (inactive) | 31.4 µM (inactive) | 26.5 µM (inactive) | 31 µM (inactive) | 41.1 | 23.7 µM (inactive) | 43.9 µM (inactive) | 16.9 µM (inactive) | – |
| CCCCCNC(=O)CCCCCCCCCCCNC(=O)CCCCCCCCCCN1C=CC(=CC=C2C=CC(=O)C=C2)C=C1 | 64.6 µM (inactive) | 39.4 µM (inactive) | > 100 µM (inactive) | 65 µM (inactive) | > 100 µM (inactive) | 54.6 µM (inactive) | 35.2 µM (inactive) | > 100 µM (inactive) | 48.4 µM (inactive) | 8.99 µM (inactive) | > 10 µM (inactive) | > 100 µM (inactive) | > 100 µM (inactive) | 63.8 µM (inactive) | 34.9 µM (inactive) | > 100 | 19.4 µM (inactive) | 28.4 µM (inactive) | – | – |
| COc1cc(CCc2ccc(N)cc2)cc(OC)c1OC | > 42.7 µM (inactive) | > 54.8 µM (inactive) | 50.9 µM (inactive) | 63.5 µM (inactive) | > 69.3 µM (inactive) | 41.5 µM (inactive) | 29.4 µM (inactive) | > 100 µM (inactive) | 38.7 µM (inactive) | 64.6 µM (inactive) | > 74.3 µM (inactive) | 55.1 µM (inactive) | > 66.5 µM (inactive) | > 76.2 µM (inactive) | 28.2 µM (inactive) | 43.4 | > 56 µM (inactive) | > 86.9 µM (inactive) | – | – |
| COC[C@H]1OC(=O)c2coc3c2[C@@]1(C)C1=C(C3=O)[C@@H]2CCC(=O)[C@@]2(C)C[C@H]1OC(C)=O [WORTMANNIN] | 3.05 µM (inactive) | 7.14 µM (inactive) | 13.4 µM (inactive) | – | 21.4 µM (inactive) | 1.97 µM (inactive) | 11.5 µM (inactive) | 13.6 µM (inactive) | 1.31 µM (inactive) | 2.43 µM (inactive) | 11.9 µM (inactive) | 8.95 µM (inactive) | 9.66 µM (inactive) | – | – | 9.91 | 0.323 µM (active) | 1.28 µM (inactive) | – | 3.25 µM (inactive) |
| O=c1c2ccccc2c(=O)c2c1c1[nH]c3ccccc3c1c1c(=O)c3ccccc3c(=O)c21 | > 100 µM (inactive) | > 100 µM (inactive) | > 100 µM (inactive) | > 100 µM (inactive) | > 100 µM (inactive) | > 100 µM (inactive) | > 100 µM (inactive) | > 100 µM (inactive) | > 100 µM (inactive) | > 100 µM (inactive) | > 100 µM (inactive) | > 100 µM (inactive) | > 100 µM (inactive) | > 100 µM (inactive) | > 100 µM (inactive) | > 100 | > 100 µM (inactive) | > 100 µM (inactive) | – | – |
| CCCCNC(=S)Nc1nc(C(=O)NNC(=S)NCC)cs1 | > 100 µM (inactive) | 56.8 µM (inactive) | 53.1 µM (inactive) | 73.1 µM (inactive) | > 100 µM (inactive) | 53.8 µM (inactive) | 25.7 µM (inactive) | 31.6 µM (inactive) | > 100 µM (inactive) | > 100 µM (inactive) | > 100 µM (inactive) | – | 16.5 µM (inactive) | > 10 µM (inactive) | > 100 µM (inactive) | 23 | > 100 µM (inactive) | 78.5 µM (inactive) | – | > 100 µM (inactive) |
| O=C(Nc1ccc([N+](=O)[O-])cc1C(=O)O)c1ccc([N+](=O)[O-])cc1 | > 100 µM (inactive) | 41.4 µM (inactive) | 15.5 µM (inactive) | 27.4 µM (inactive) | 37.7 µM (inactive) | 29 µM (inactive) | 51.3 µM (inactive) | 25.3 µM (inactive) | 42.8 µM (inactive) | 14.4 µM (inactive) | 70.3 µM (inactive) | 21 µM (inactive) | > 100 µM (inactive) | 17.5 µM (inactive) | 32.4 µM (inactive) | 20.8 | > 100 µM (inactive) | 29.2 µM (inactive) | – | – |
